Measurements: the NIST ThermoML archive (doi:10.1021/je400415r)

Experiment: mn = molality of the nth substance listed, in mol/kg
Conditions: 101 kPa, Liquid; for speed of sound: Pulse-echo method; for mass density: Vibrating tube method

NCC(=O)O [2-aminoacetic acid] + O
Conditions | mass density, 288.15 K [kg/m3] | mass density, 298.15 K [kg/m3] | mass density, 308.15 K [kg/m3] | mass density, 318.15 K [kg/m3] | speed of sound, 288.15 K [m/s] | speed of sound, 298.15 K [m/s] | speed of sound, 308.15 K [m/s] | speed of sound, 318.15 K [m/s]
m1 = 0.04998 | 1000.77 | 998.679 | 995.632 | 991.792 | 1469.2 | 1499.4 | 1522.2 | 1538.6
m1 = 0.1399 | 1003.74 | 1001.58 | 998.484 | 994.608 | 1474.3 | 1504.2 | 1526.8 | 1543
m1 = 0.2276 | 1006.6 | 1004.38 | 1001.24 | 997.323 | 1479.2 | 1508.8 | 1531.1 | 1547.1
m1 = 0.4056 | 1012.27 | 1009.94 | 1006.71 | 1002.72 | 1488.9 | 1517.9 | 1539.7 | 1555.4
m1 = 0.5835 | 1017.82 | 1015.36 | 1012.04 | 1007.99 | 1498.4 | 1526.8 | 1548.2 | 1563.5
m1 = 0.7602 | 1023.19 | 1020.62 | 1017.22 | 1013.1 | 1507.6 | 1535.4 | 1556.3 | 1571.3
m1 = 0.9386 | 1028.48 | 1025.81 | 1022.32 | 1018.13 | 1516.7 | 1543.9 | 1564.4 | 1579
m1 = 1.117 | 1033.62 | 1030.85 | 1027.28 | 1023.04 | 1525.5 | 1552.2 | 1572.2 | 1586.4
m1 = 1.296 | 1038.69 | 1035.81 | 1032.17 | 1027.84 | 1534.1 | 1560.3 | 1579.8 | 1593.7

CCC(N)C(=O)O (stereo not drawn) [(.+-.)-α-aminobutyric acid] + O
Conditions | mass density, 288.15 K [kg/m3] | mass density, 298.15 K [kg/m3] | mass density, 308.15 K [kg/m3] | mass density, 318.15 K [kg/m3] | speed of sound, 288.15 K [m/s] | speed of sound, 298.15 K [m/s] | speed of sound, 308.15 K [m/s] | speed of sound, 318.15 K [m/s]
m1 = 0.04996 | 1000.54 | 998.441 | 995.405 | 991.565 | 1470.8 | 1500.8 | 1523.5 | 1539.8
m1 = 0.1498 | 1003.36 | 1001.19 | 998.105 | 994.226 | 1479.5 | 1508.9 | 1530.9 | 1546.7
m1 = 0.2141 | 1005.15 | 1002.92 | 999.815 | 995.911 | 1485.2 | 1513.8 | 1535.7 | 1551.1
m1 = 0.4366 | 1011.15 | 1008.79 | 1005.56 | 1001.57 | 1504.2 | 1531.5 | 1551.8 | 1566
m1 = 0.6599 | 1016.91 | 1014.4 | 1011.06 | 1006.99 | 1522.7 | 1548.4 | 1567.4 | 1580.5
m1 = 0.8834 | 1022.42 | 1019.77 | 1016.34 | 1012.18 | 1540.7 | 1564.9 | 1582.6 | 1594.5
m1 = 1.106 | 1027.68 | 1024.9 | 1021.35 | 1017.13 | 1558 | 1580.7 | 1597.2 | 1608
m1 = 1.33 | 1032.73 | 1029.83 | 1026.17 | 1021.87 | 1574.8 | 1596.1 | 1611.3 | 1621
m1 = 1.552 | 1037.55 | 1034.52 | 1030.77 | 1026.4 | 1590.9 | 1610.8 | 1624.8 | 1633.5
m1 = 1.774 | 1042.19 | 1039.05 | 1035.2 | 1030.74 | 1606.6 | 1625.1 | 1637.8 | 1645.5
m1 = 1.998 | 1046.67 | 1043.4 | 1039.51 | 1034.95 | 1621.7 | 1638.9 | 1650.5 | 1657.1
